Reference: paper PMC7822874, “Chemoprotective antimalarials identified through quantitative high-throughput screening of Plasmodium blood and liver stage parasites” (Scientific Reports, 2021)
Where two headings read alike, the source gives them in different places.

Tests used:
[1] = tested on: Plasmodium falciparum Dd2 asexual blood stage parasites; test: microbe, parasite or virus in culture; parameters: species or system Plasmodium falciparum Dd2 in human erythrocytes; single determination (one 11-point concentration-response curve); settings: Plasmodium falciparum, DD2, Erythrocyte, 72 h
[2] = tested on: HepG2; settings: human, hepg2 cells, 48 h
[3] = in vitro; settings: human, hepg2 cells

| Structure (SMILES) | Log AC50 (M) [2] [M] | AC50 ([1]; read-out: AC50) [µM] | CC50 at 48 h [3] [µM] | AC50 [1] [µM] |
| --- | --- | --- | --- | --- |
| CCN(CC)CCNc1ccnc2cc(Cl)ccc12 [MLS000066547-01] | -4.5143 | 0.211 | 30.6 |  |
| COc1ccc(-[n+]2c(-c3ccc(Br)cc3)cn3c2CCc2ccccc2-3)cc1.[Br-] [MLS000391920-01] | -4.3643 | 4.22 | 43.2 |  |
| O=C(O)c1ccccc1.OC(CNCC1CCCO1)Cn1c2ccc(Cl)cc2c2cc(Cl)ccc21 (stereo not drawn) [MLS000525403-01] | -4.4143 | 1.19 | 38.5 |  |
| O=C(c1cc(NC(=O)C23CC4CC(CC(C4)C2)C3)cc(NC(=O)C23CC4CC(CC(C4)C2)C3)c1)N1CCCCC1 [MLS000549502-01] | -4.3643 | 5.96 | 43.2 |  |
| O=C(Nc1ccc([N+](=O)[O-])cc1)Nc1ccc(OC(F)F)c(Cl)c1 [MLS000581434-01] | -4.5143 | 2.66 | 30.6 |  |
| O=C(Nc1ccc(Nc2ccncc2)cc1)c1ccc(Nc2ccnc3ccc([N+](=O)[O-])cc23)cc1[N+](=O)[O-] [MLS000756458-01] | -4.5643 |  | 27.3 | 1.33 |
| CC1CCCN(Cc2c(O)ccc3c4c(c(=O)oc23)CCCC4)C1 (stereo not drawn) [MLS000778333-01] | -4.9143 | 6.68 | 12.2 |  |
| O=C(Nc1ccc(C(F)(F)F)cc1)N1CCN(c2ccnc3cc(Cl)ccc23)CC1 [MLS000830170-01] | -4.6143 | 5.31 | 24.3 |  |
| FC(F)(F)c1cnc(N2CCCN(C(S)=Nc3ccccc3)CC2)c(Cl)c1 [MLS000833545-01] | -4.3643 | 4.73 | 43.2 |  |
| CC(Sc1nc2ccccc2c(=O)n1C)C(=O)N(C)C1CCCCC1 (stereo not drawn) [MLS001098006-01] | -4.3643 | 5.31 | 43.2 |  |
| CCN(CC)CCNC(=O)c1ccc(NC(=O)c2ccc(S(=O)(=O)N3CCCCCC3)cc2)cc1 [MLS001157553-01] | -4.4643 | 8.41 | 34.3 |  |
| CN(C)CCNC(=O)c1cc2c(s1)-c1ccc(Cl)cc1SC2 [MLS001198989-01] | -4.4643 | 13.3 | 34.3 |  |
| COc1cc2nc(N3CCN(c4cc(C)ccc4C)CC3)nc(N)c2cc1OC.Cl [MLS001199642-01] | -4.3643 | 6.68 | 43.2 |  |
| O=C1NCN(c2ccccc2)C12CCN(CCCC(c1ccc(F)cc1)c1ccc(F)cc1)CC2 [NCGC00015424-04] | -4.3643 | 5.31 | 43.2 |  |
| CC(C)(C)CC(C)(C)c1ccc(O)c(Cc2ccc(Cl)cc2Cl)c1 [NCGC00095016-01] | -4.6643 | 1.68 | 21.7 |  |
| CCN(CC)CCn1c(=N)n(CC(O)COc2ccccc2C)c2ccccc21 (stereo not drawn) [NCGC00101835-01] | -4.5643 | 3.35 | 27.3 |  |
| Cc1cc(OCCn2cc(C(=O)c3ccco3)c3ccccc32)ccc1Cl [NCGC00101880-01] | -4.8143 | 5.31 | 15.3 |  |
| Cc1nn(C)c(C)c1CCC(=O)N1CCC(Cc2noc(-c3ccc(F)cc3)n2)C1 (stereo not drawn) [NCGC00443260-01] | -4.5143 |  | 30.6 |  |
| C[S+](=O)([O-])N1CCC(OC2CCN(C(=O)Nc3cc(F)ccc3F)CC2)CC1 [NCGC00445092-01] | -4.3643 |  | 43.2 |  |
| CCCCOc1ccc(-c2nc(C3CC(=O)N(C4CCCCC4)C3)no2)cc1 (stereo not drawn) [NCGC00448051-01] | -4.4643 |  | 34.3 |  |
| Cc1nc(N2CCC(NC(=O)c3cc4ccccc4[nH]3)CC2)cc(C(F)(F)F)n1 [NCGC00455533-01] | -4.4643 |  | 34.3 |  |
| Cc1ccc(NC(=O)C2CCN(c3cc(C(F)(F)F)ncn3)CC2)cc1 [NCGC00455557-01] | -4.4643 |  | 34.3 |  |
| CCc1ccc(NC(=O)C2CCN(c3cc(C(F)(F)F)ncn3)CC2)cc1 [NCGC00455558-01] | -4.4643 |  | 34.3 |  |
| O=C1CCN(Cc2ccc(C(F)(F)F)cc2)CCCC(c2nc(-c3cccnc3)no2)CCN1 (stereo not drawn) [NCGC00465921-01] | -4.5643 |  | 27.3 |  |
| O=C1CCN(Cc2ccc(F)cc2F)CCCC(c2nc(-c3cnccn3)no2)CCN1 (stereo not drawn) [NCGC00465975-01] | -4.9143 |  | 12.2 |  |
| CCc1nnc([C@@H]2CC(F)(F)CN2Cc2cccn2C)o1 [NCGC00468656-01] | -4.8643 |  | 13.7 |  |

More lines, main results first:

| Log AC50 (M) [2] [M] | Structure (SMILES) | AC50 ([1]; read-out: AC50) [µM] | CC50 at 48 h [3] [µM] | AC50 [1] [µM] |
| --- | --- | --- | --- | --- |
| -4.4643 | COc1ccc(NC(=O)c2ccc(Cl)c(S(=O)(=O)N3CCc4ccccc4C3)c2)cn1 [MLS000057537-01] | 7.5 | 34.3 |  |
| -4.3643 | Cc1ccc(CNCc2cc3c(C(C)(C)C)nn(-c4ccccc4)c3[nH]c2=O)cc1 [MLS000067257-01] | 0.266 | 43.2 |  |
| -4.4643 | CCCCNc1cc(C)nc(NCc2ccccc2)n1 [MLS000078573-01] | 9.44 | 34.3 |  |
| -4.3643 | C=C(C)COc1ccc(-c2n[nH]c(C)c2-c2ccccc2)c(O)c1 [MLS000083081-01] | 4.73 | 43.2 |  |
| -4.3643 | CCCCC(=O)NC(c1cccc([N+](=O)[O-])c1)c1c(OC(C)=O)ccc2ccccc12 (stereo not drawn) [MLS000527046-01] | 3.76 | 43.2 |  |
| -4.4643 | Cc1cc(NC2CCCCC2)nc(NCc2ccccc2)n1 [MLS000555549-01] | 16.8 | 34.3 |  |
| -5.9643 | Cc1cc(NCc2ccccn2)n2nc(C)c(-c3ccccc3)c2n1 [MLS000559925-01] | 13.3 | 1.09 |  |
| -4.4143 | CCOc1ccc2nc(C)cc(Nc3ccc4c(c3)OCCO4)c2c1 [MLS000575119-01] | 6.68 | 38.5 |  |
| -4.3643 | Cc1cc(Nc2ccc(Cl)cc2)nc(NCc2ccccc2)n1 [MLS000591025-01] | 0.422 | 43.2 |  |
| -6.0143 | Fc1cccc(NC(S)=NNc2c3ccccc3nc3ccccc23)c1 [MLS000660813-01] | 15 | 0.968 |  |
| -4.3643 | Cc1ccc2nc(C)cc(Nc3ccc([N+](=O)[O-])cc3)c2c1 [MLS000710716-01] | 6.68 | 43.2 |  |
| -4.7643 | CCCCC(=O)NC(c1ccccc1OC)c1ccc2cccnc2c1O (stereo not drawn) [MLS000715346-01] | 5.31 | 17.2 |  |
| -4.5643 | COc1ccc(/C=N/Nc2nc(Nc3ccccc3)nc(N3CCCC3)n2)cc1[N+](=O)[O-] [MLS000723644-01] | 6.68 | 27.3 |  |
| -4.4143 | Oc1cccc(C(Nc2nccs2)c2ccc3cccnc3c2O)c1 (stereo not drawn) [MLS000760926-01] | 7.5 | 38.5 |  |
| -4.3643 | Cc1ccc(Oc2c(C)[nH]c(-c3ccccc3)nc2=O)cc1 [MLS000851017-01] | 5.31 | 43.2 |  |
| -4.9643 | O=C(Nc1nnc(SCc2ccc(F)cc2)s1)c1ccccn1 [MLS001003501-01] | 8.41 | 10.9 |  |
| -4.5143 | COc1ccc2nc(C)cc(NCc3cccc(C(F)(F)F)c3)c2c1 [MLS001174340-01] | 2.11 | 30.6 |  |
| -4.8143 | Cc1nc(-c2ccccn2)nc(N(C)c2ccccc2)c1Cl [MLS001182279-01] | 5.31 | 15.3 |  |
| -4.9143 | CN(C)CCCNc1c2ccccc2nc2ccccc12 [MLS001198528-01] | 4.22 | 12.2 |  |
| -4.6143 | CCOc1ccc(NS(=O)(=O)c2csc(C(N)=O)c2)cc1 [MLS001199948-01] | 7.5 | 24.3 |  |
| -4.5143 | CCN(CC)CCNC(=O)c1ccc(NC(=O)c2cn(-c3ccc(F)cc3)nc2-c2cccc(OC)c2)cc1 [MLS001233779-01] | 9.44 | 30.6 |  |
| -4.3643 | COc1cc(Cl)c(NC2=CC(=O)C(=O)c3ccccc32)c(OC)c1 [MLS001360325-01] | 1.68 | 43.2 |  |
| -4.3643 | CCN1CCN(c2cc(C)c3cc(NC(=O)/C=C/c4ccc(C)cc4)ccc3n2)CC1 [NCGC00103850-01] | 4.22 | 43.2 |  |
| -4.5143 | CCN1CCN(c2cc(C)c3cc(NC(=O)/C=C/c4ccc(OCCC(C)C)cc4)ccc3n2)CC1 [NCGC00103856-01] | 2.11 | 30.6 |  |
| -4.4643 | COc1ccc(/C=C/C(=O)Nc2ccc3nc4c(c(Nc5ccccc5OC)c3c2)CCCC4)cc1 [NCGC00104041-01] | 3.35 | 34.3 |  |
| -4.4143 | CCN(CC)CCCNC(=O)c1ccc2c(c1)N(Cc1c(F)cccc1Cl)C(=O)c1ccccc1S2 [NCGC00108146-01] | 0.944 | 38.5 |  |
| -4.5143 | O=C(c1n[nH]c2c1CCCC2)N1CCC(n2cc(-c3nc(-c4ccccc4)no3)nn2)CC1 [NCGC00454851-01] |  | 30.6 |  |
| -4.3643 | COc1ccc(C(=O)N2CCC(n3cc(-c4nc(-c5ccccc5)no4)nn3)C2)cc1 (stereo not drawn) [NCGC00455125-01] |  | 43.2 |  |
| -4.5143 | Cc1nc(C)c(C(=O)N2CC(Oc3ccc(-c4noc(-c5ccccc5)n4)cc3)C2)s1 [NCGC00458037-01] |  | 30.6 |  |
